In patent US10493087B2, “Sialylation-increasing therapies for diseases associated with oxidative stress” (THE UNITED STATES OF AMERICA, AS REPRESENTED BY THE …, priority 2015, dated 2019):

Columns and labels:
[1] = tested on: Gne−/−hGNED176V-Tg mice; test: Muscle contractile properties analysis (gastrocnemius); type: in vivo; settings: for Peak isometric twitch force (Pt) / Maximum tetanic force (Po): gastrocnemius; for Peak isometric twitch force (Pt): untreated 167.1±6.0; for Maximum tetanic force (Po): untreated 526.7±24.1; for Specific isometric force (Pt/CSA): untreated 16.3±2.6; for Specific tetanic force (Po/CSA): untreated 51.4±8.9
Procedure: N-Acetylcysteine (NAC) Treatment Protocols: […] were randomly divided into high dose NAC (n=13), low dose NAC (n=13), or untreated control (n=17) groups. […] There was no difference in water consumption between mice receiving NAC supplemented water or regular drinking water. […] Three littermates groups (high dose NAC; n=7, low dose NAC; n=7, or untreated control; n=6) were treated in the same way. Muscle contractile properties analysis: The contractile properties of the gastrocnemius and tibialis anterior muscles were measured according to previous protocol ([…] et al., Nat Med. 2009; 15:690-695; […] et al., Physiol Genomics. 2008; 35:106-115). After the mouse was anesthetized with intraperitoneal sodium pentobarbital (50 mg per kg body weight), the entire skeletal muscles were isolated along with the proximal bone of origin intact. Then the muscle was mounted in a vertical chamber and connected to a force-displacement and length servo system. […] With the muscle held at L0 and duration changed to 3 ms, the force developed during trains of stimulation pulses (10 to 100 Hz) was recorded and the maximum absolute tetanic force (Po) was determined. Absolute force was normalized with the physiologic cross-sectional area (CSA; muscle weight divided by the product of L0 and 1.066 g/cm^3) to obtain specific force (Pt/CSA and Po/CSA).

[2] = tested on: Gne−/−hGNED176V-Tg mice; test: Fiber diameter analysis of gastrocnemius muscles; type: in vivo; settings: for Mean fiber diameter: gastrocnemius
Procedure: N-Acetylcysteine (NAC) Treatment Protocols: […] were randomly divided into high dose NAC (n=13), low dose NAC (n=13), or untreated control (n=17) groups. […] There was no difference in water consumption between mice receiving NAC supplemented water or regular drinking water. […] Three littermates groups (high dose NAC; n=7, low dose NAC; n=7, or untreated control; n=6) were treated in the same way. Fiber diameter analysis: Muscle tissues were processed according to previous protocols (8-10). For the morphometric analysis, we stained frozen transverse sections (6 μm) of gastrocnemius muscles with rabbit polyclonal antibody to caveolin 3 (BD Transduction Laboratories), followed by Alexa fluor-conjugated goat IgG antibody to rabbit (Invitrogen). Five randomly selected images per mouse were used to measure fiber diameters using ImageJ software (NIH). Minimal inner diameters of 1,000 myofibers from each mouse were measured.

[3] = Safety of long term NAC treatment (side effects, serum chemistry); type: in vivo, mice
From the text: N-Acetylcysteine (NAC) Treatment Protocols: Gne^−/−hGNED176V-Tg mice were randomly divided into high dose NAC (n=13), low dose NAC (n=13), or untreated control (n=17) groups. For NAC (Sigma) treatment, mice were provided ad libitum access to drinking water containing high dose NAC (1.0% w/v) or low dose NAC (0.1% w/v), which gives an average dose of 1.5 g/kg for high dose group and of 0.15 g/kg for low dose group per day. There was no difference in water consumption between mice receiving NAC supplemented water or regular drinking water. Treatment was initiated from the average age of 26 weeks until the mice reached at least 55 weeks. Three littermates groups (high dose NAC; n=7, low dose NAC; n=7, or untreated control; n=6) were treated in the same way.

In the case of CC(=O)N[C@@H](CS)C(=O)O [NAC, N-acetylcysteine], the “Peak isometric twitch force (Pt)” value ([1]; HD group 1.5 g/kg per day) is reported as 228.5±15.0 mN, the “Maximum tetanic force (Po)” value ([1]; HD group 1.5 g/kg per day) is reported as 687.5±52.4 mN and the “Specific isometric force (Pt/CSA)” value ([1]; HD group 1.5 g/kg per day) is reported as 22.5±5.1 mN/mm^2. The “Specific tetanic force (Po/CSA)” value ([1]; HD group 1.5 g/kg per day) was 67.5±15.7 mN/mm^2, the “Peak isometric twitch force (Pt)” value ([1]; LD group 0.15 g/kg per day) was 233.6±10.0 mN and the “Maximum tetanic force (Po)” value ([1]; LD group 0.15 g/kg per day) was 735.0±43.0 mN. The “Specific isometric force (Pt/CSA)” value ([1]; LD group 0.15 g/kg per day) was 23.4±3.3 mN/mm^2, the “Specific tetanic force (Po/CSA)” value ([1]; LD group 0.15 g/kg per day) was 73.5±13.5 mN/mm^2 and the “Increase of absolute contractile forces (Pt and Po) in littermate mice” value ([1]; littermate control mice with NAC supplement) was “not statistically significant”. For the same molecule, the Mean fiber diameter ([2]; HD group 1.5 g/kg per day, p<0.05 vs untreated 31.7±0.8) was 35.2±1.2 μm, the Mean fiber diameter ([2]; LD group 0.15 g/kg per day, p<0.01 vs untreated 31.7±0.8) was 35.7±0.8 μm and the “Average fiber diameters in healthy control mice” value ([2]; some healthy control (littermate) mice with NAC supplement) was “increased”. For the same molecule, the Adverse side effects ([3]; long term treatment of mice) was “No adverse side effects”, the Alkaline phosphatase ([3]; treated vs untreated mice) was “no difference” and the Blood urea nitrogen ([3]; treated vs untreated mice) was “no difference”. For the same molecule, the Serum aspartate aminotransferase ([3]; treated vs untreated mice) was “no difference”.
